US4223038A, “Bicyclic β-lactam antibiotics” (Beecham Group Limited, priority 1977, dated 1980)
Like-named read-outs stand apart in the source and are kept apart here.

Experiments:
[1] = target: T1, β-lactamase, E. Coli JT4 (Escherichia coli, UniProt P62593); assay: β-Lactamase inhibition, automated hydroxyamine assay; format: biochemical; details: for inhibition at 20 µg/mL: read-out: amount of inhibition at maximum concentration; for IC50: maximum concentration 20 μg/ml, read-out: concentration of compound for 50% inhibition of enzyme (converted)
T1 construct: preparation not described
Procedure: (§1) Method was automated hydroxyamine assay except for compounds marked + which were tested using the automated chromagenic substrate assay.
(§2) Results are presented as concentration of compounds in μg/ml for 50% inhibition of enzyme, except a percentage indicates amount of inhibition at maximum concentration of 20 μg/ml (50 μg/ml for asterisked figures).

[2] = target: T2, β-lactamase, Ent. Cloacae P99 (Enterobacter cloacae, UniProt P05364); assay: as above; format: biochemical; details: for IC50: maximum concentration 20 μg/ml, read-out: concentration of compound for 50% inhibition of enzyme (converted); for inhibition at 20 µg/mL: at 20 μg/ml, read-out: amount of inhibition at maximum concentration
T2 construct: preparation not described
Procedure: as §1, §2

[3] = target: β-lactamase, Ps aerug A; assay: as above; format: biochemical; details: for amount of inhibition at maximum concentration: at 20 μg/ml
Procedure: as §1, §2

[4] = target: β-lactamase, P. Mirab C889; assay: as above; format: biochemical; details: for concentration of compound for 50% inhibition of enzyme: maximum concentration 20 μg/ml
Procedure: as §1, §2

[5] = target: T1, β-lactamase, E. Coli JT4; assay: β-Lactamase inhibition, automated chromagenic substrate assay; format: biochemical; details: read-out: concentration of compound for 50% inhibition of enzyme (converted)
Procedure: as §1, §2

[6] = target: T2, β-lactamase, Ent. Cloacae P99; assay: as above; format: biochemical; details: for inhibition at 50 µg/mL: at 50 μg/ml (asterisked), read-out: amount of inhibition at maximum concentration; for IC50: read-out: concentration of compound for 50% inhibition of enzyme (converted)
Procedure: as §1, §2

[7] = target: T3, β-lactamase, Staph aureus Russel (Staphylococcus aureus, UniProt P00807); assay: as above; format: biochemical; details: at 50 μg/ml (asterisked), read-out: amount of inhibition at maximum concentration
Procedure: as §1, §2

[8] = target: β-lactamase, Kleb aerog E70; assay: as above; format: biochemical
Procedure: as §1, §2

[9] = target: T3, β-lactamase, Staph aureus Russel; assay: β-Lactamase inhibition, automated hydroxyamine assay; format: biochemical; details: at 20 μg/ml, read-out: amount of inhibition at maximum concentration
Procedure: as §1, §2

[10] = target: β-lactamase, P. Mirab C889; assay: β-Lactamase inhibition, automated chromagenic substrate assay; format: biochemical
Procedure: as §1, §2

[11] = system: β-lactamase, Ps aerug A; assay: as above; format: biochemical; details: at 50 μg/ml (asterisked)
Procedure: as §1, §2

[12] = system: Escherichia coli 8; assay: Antibacterial activity in vivo, mouse intraperitoneal infection; details: Expt R21 and R23
Procedure: (§3) Antibacterial activity in vivo [drawing 117] Experimental model: Mouse intraperitoneal infection Micro-organism: Escherichia coli 8 suspended in 3% AL1 mucin plus 1% carboxymethylcellulose
(§4) Dosing route: Subcutaneous
(§5) Dosing schedule: 1, 1.5, 2, 2.5 hours after infection

[13] = Tolerance of maximum total dose in the mouse infection experiment; format: in vivo; details: mice; subcutaneous; maximum total dose 100 mg/kg
Procedure: as §3, §4, §5
Maximum total dose was 100 mg/kg and this was tolerated by the mice.

[14] = E. Coli JT4 β-lactamase, hydroxyamine assay, at 20 μg/ml
[15] = E. Coli JT4 β-lactamase, hydroxyamine assay

T2 sequence (P05364 21-381): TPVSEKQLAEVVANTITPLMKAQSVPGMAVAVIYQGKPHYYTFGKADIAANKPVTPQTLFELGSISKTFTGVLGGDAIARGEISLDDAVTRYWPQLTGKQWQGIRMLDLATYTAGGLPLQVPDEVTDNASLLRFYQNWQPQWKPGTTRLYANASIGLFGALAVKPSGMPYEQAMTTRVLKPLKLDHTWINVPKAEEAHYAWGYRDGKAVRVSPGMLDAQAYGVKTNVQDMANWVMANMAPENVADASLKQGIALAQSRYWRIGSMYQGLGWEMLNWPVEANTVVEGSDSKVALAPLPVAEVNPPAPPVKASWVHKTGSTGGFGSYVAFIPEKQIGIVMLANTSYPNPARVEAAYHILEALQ
T3 sequence (P00807 25-281): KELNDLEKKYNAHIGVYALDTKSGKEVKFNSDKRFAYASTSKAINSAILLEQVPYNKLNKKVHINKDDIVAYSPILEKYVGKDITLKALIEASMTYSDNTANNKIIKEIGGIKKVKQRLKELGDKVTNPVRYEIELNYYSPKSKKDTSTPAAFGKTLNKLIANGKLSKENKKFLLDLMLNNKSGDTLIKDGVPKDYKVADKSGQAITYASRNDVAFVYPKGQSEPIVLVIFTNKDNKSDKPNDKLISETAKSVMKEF
T1 sequence (P62593 24-286 limits assumed): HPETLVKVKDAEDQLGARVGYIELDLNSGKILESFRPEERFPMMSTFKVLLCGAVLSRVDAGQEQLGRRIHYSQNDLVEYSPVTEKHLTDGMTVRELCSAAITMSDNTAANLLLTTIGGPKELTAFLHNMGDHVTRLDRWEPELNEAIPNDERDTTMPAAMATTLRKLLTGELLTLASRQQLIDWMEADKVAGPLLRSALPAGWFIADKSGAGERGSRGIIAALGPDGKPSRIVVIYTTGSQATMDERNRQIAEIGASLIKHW

Q: For CC[S+]([O-])C1=C(C(=O)OCc2ccccc2)N2C(=O)[C@@H](C(C)(C)O)[C@H]2C1 (relative stereo) [Compound 84, Benzyl 3-ethylsulphinyl-trans-6-(2-hydroxy-2-propyl)-7-oxo-1-azabicyclo[3.2.0]hept-2-ene-2-carboxylate], which inhibition at 20 µg/mL [1, 14] is on record?
A: The inhibition at 20 µg/mL was 16%.

Q: What about the IC50 [2] of the same molecule?
A: The IC50 was 10.3 µM.

Q: And the “concentration of compound for 50% inhibition of enzyme” value ([3]; maximum concentration 20 μg/ml)?
A: Its value is 12.1 µg/mL.

Q: Which inhibition at 20 µg/mL [2] does the source give for CC[S+]([O-])C1=C(C(=O)OCC(=O)c2ccc(Br)cc2)N2C(=O)C(CC=CC(=O)OC)C2C1 (single isomer, unassigned) [Compound 73, p-Bromophenacyl 3-ethylsulphinyl-6-(3-methoxycarbonylprop-2-en-1-yl)-7-oxo-1-azabicyclo[3.2.0]hept-2-ene-2-carboxylate] here?
A: The inhibition at 20 µg/mL was 31%.

Q: And the “concentration of compound for 50% inhibition of enzyme” value [4]?
A: Its value is 1.2 µg/mL.

Q: Which IC50 [5] does the source give for CC(=O)Nc1ccc([S+]([O-])C2=C(C(=O)OCc3ccccc3)N3C(=O)CC3C2)cc1 (centres unmarked) [Compound 65, Benzyl 3-p-acetamidophenylsulphinyl-7-oxo-1-azabicyclo[3.2.0]hept-2-ene-2-carboxylate] here?
A: The IC50 was 0.825 µM.

Q: What about the inhibition at 50 µg/mL [6] of the same molecule?
A: Its inhibition at 50 µg/mL is 47%.

Q: And the inhibition at 50 µg/mL [7]?
A: Its inhibition at 50 µg/mL is 35%.

Q: With COC(=O)C=CCC1C(=O)N2C(C(=O)OCc3ccccc3)=C([S+]([O-])c3ccccc3)CC12 (centres unmarked) [Compound 69, Benzyl 6-(3-methoxycarbonylprop-2-en-1-yl)-7-oxo-3-phenylsulphnyl-1-azabicyclo[3.2.0]hept-2-ene-2-carboxylate] as the molecule, how does the IC50 [1, 15] read?
A: Its IC50 is 26.2 µM.

Q: What about the inhibition at 20 µg/mL [2] of the same molecule?
A: Its inhibition at 20 µg/mL is 23%.

Q: What about the “concentration of compound for 50% inhibition of enzyme” value [4] of the same molecule?
A: Its value is 2.4 µg/mL.

Q: And the “amount of inhibition at maximum concentration” value (“amount of inhibition” for short) [3]?
A: The value was 44%.

Q: For CC[S+]([O-])C1=C(C(=O)OCc2ccccc2)N2C(=O)C(Cc3ccccc3)C2C1 (centres unmarked) [Compound 80, Benzyl 6-benzyl-3-ethylsulphinyl-7-oxo-1-azabicyclo[3.2.0]hept-2-ene-2-carboxylate], which IC50 [5] is on record?
A: The IC50 was 20.8 µM.

Q: And the IC50 [6]?
A: The IC50 was 52 µM.

Q: What about the “concentration of compound for 50% inhibition of enzyme” value [8] of the same molecule?
A: The value was 24 µg/mL.

Q: What does the source list for CC(=O)NCC[S+]([O-])C1=C(C(=O)OCc2ccccc2)N2C(=O)CC2C1 (centres unmarked) [Compound 63, Benzyl 3-(2-acetamidoethylsulphinyl)-7-oxo-1-azabicyclo[3.2.0]hept-2-ene-2-carboxylate]?
A: inhibition at 20 µg/mL [1, 14]: 29%; inhibition at 20 µg/mL [2]: 16%; concentration of compound for 50% inhibition of enzyme [4]: 3.3 µg/mL

Q: What does the source list for CC[S+]([O-])C1=C(C(=O)OC2OC(=O)c3ccccc32)N2C(=O)C(CC=CC(=O)OC)C2C1 (centres unmarked) [Compound 78, Phthalidyl 3-ethylsulphinyl-6-(3-methoxycarbonylprop-2-en-1-yl)-7-oxo-1-azabicyclo[3.2.0]hept-2-ene-2-carboxylate]?
A: inhibition at 20 µg/mL [1, 14]: 16%; IC50 [2]: 19.2 µM

Q: Which results are given for CC(=O)Nc1ccc([S+]([O-])C2=C(C(=O)OCc3ccccc3)N3C(=O)CC3C2)cc1 (centres unmarked) [Compound 67, Benzyl 3-p-acetamidophenylsulphinyl-7-oxo-1-azabicyclo[3,2,0]hept-2-ene-2-carboxylate]?
A: IC50 [5]: 1.84 µM; IC50 [6]: 118 µM

Q: Which results are given for CC(O)[C@@H]1C(=O)N2C(C(=O)OCc3ccccc3)=C([S+]([O-])c3ccccc3)C[C@H]12 (relative stereo) [Compound 82, Benzyl trans-6-(1-hydroxyethyl)-7-oxo-3-phenylsulphinyl-1-azabicyclo[3.2.0]hept-2-ene-2-carboxylate]?
A: IC50 [5]: 31.6 µM; IC50 [6]: 46.2 µM; concentration of compound for 50% inhibition of enzyme [8]: 2 µg/mL; inhibition at 50 µg/mL [7]: 20%

Q: Which IC50 [2] does the source give for CC[S+]([O-])C1=C(C(=O)OCc2ccccc2)N2C(=O)[C@@H](C(C)(C)O)[C@H]2C1 (relative stereo) [Compound 86, Benzyl 3-ethylsulphinyl-trans-6-(2-hydroxy-2-propyl)-7-oxo-1-aza-bicyclo[3.2.0]hept-2-ene-2-carboxylate] here?
A: The IC50 was 6.62 µM.

Q: Which results are given for CC[S+]([O-])C1=C(C(=O)OCc2ccccc2)N2C(=O)[C@H](C(C)(C)O)[C@H]2C1 (relative stereo) [Compound 88, Benzyl 3-ethylsulphinyl-cis-6-(2-hydroxy-2-propyl)-7-oxo-1-azabicyclo[3.2.0]hept-2-ene-2-carboxylate]?
A: IC50 [1, 15]: 21.2 µM; IC50 [2]: 21.7 µM; amount of inhibition at maximum concentration ([4]; at 20 μg/ml): 13%; amount of inhibition at maximum concentration [3]: 23%; inhibition at 20 µg/mL [9]: 19%

Q: With CC[S+]([O-])C1=C(C(=O)OCc2ccccc2)N2C(=O)CC2C1 (centres unmarked) [Compound 57, Benzyl 3-ethylsulphinyl-7-oxo-1-azabicyclo[3.2.0]hept-2-ene-2-carboxylate] as the molecule, how does the IC50 [5] read?
A: Its IC50 is 28.2 µM.

Q: And the inhibition at 50 µg/mL [6]?
A: The inhibition at 50 µg/mL was 19%.

Q: What about the “amount of inhibition” value ([8]; at 50 μg/ml (asterisked)) of the same molecule?
A: Its value is 17%.

Q: And the “concentration of compound for 50% inhibition of enzyme” value [10]?
A: The value was 3.5 µg/mL.

Q: And the “amount of inhibition” value [11]?
A: The value was 47%.

Q: Which IC50 [1, 15] does the source give for COC(=O)C=CCC1C(=O)N2C(C(=O)OCc3ccccc3)=C([S+]([O-])c3ccccc3)CC12 (centres unmarked) [Compound 71, Benzyl 6-(3-methoxycarbonylprop-2-en-1-yl)-7-oxo-3-phenylsulphinyl-1-azabicyclo[3.2.0]hept-2-ene-2-carboxylate] here?
A: The IC50 was 18.3 µM.

Q: And the “concentration of compound for 50% inhibition of enzyme” value [4]?
A: Its value is 2.0 µg/mL.

Q: For CC[S+]([O-])C1=C(C(=O)OCc2ccccc2)N2C(=O)CC2C1 (centres unmarked) [Compound 55, Benzyl 3-ethylsulphinyl-7-oxo-1-azabicyclo[3.2.0]hept-2-ene-2-carboxylate], which inhibition at 20 µg/mL [1] is on record?
A: The inhibition at 20 µg/mL was 28%.

Q: And the “concentration of compound for 50% inhibition of enzyme” value [4]?
A: The value was 4 µg/mL.

Q: And the ED50 ([12]; Escherichia coli, 8, sc, 2.5 h, mouse i.p. infection with Escherichia coli 8, subcutaneous dosing 1, 1.5, 2, 2.5 hours after infection, total dose, read-out: CD50 Value mg/kg (total dose))?
A: Its ED50 is 5.2 mg/kg.

Q: What about the “CD50 Value mg/kg (total dose)” value ([12]; mouse i.p. infection with Escherichia coli 8, subcutaneous dosing 1, 1.5, 2, 2.5 hours after infection) of the same molecule?
A: The value was 8.8 mg/kg.

Q: What about the “tolerance of maximum total dose” value [13] of the same molecule?
A: Its value is “tolerated”.

Q: With COC(=O)C=CCC1C(=O)N2C1CC(Cl)([S+]([O-])c1ccccc1)C2C(=O)OCc1ccccc1 (stereo not drawn) [Compound 68, Benzyl 3-chloro-6-(3-methoxycarbonylprop-2-ene-1-yl)-7-oxo-3-phenylsulphinyl-1-azabicyclo[3.2.0]heptane-2α-carboxylate] as the molecule, how does the IC50 [1, 15] read?
A: Its IC50 is 15.9 µM.

Q: What about the inhibition at 20 µg/mL [2] of the same molecule?
A: Its inhibition at 20 µg/mL is 25%.

Q: What about the “concentration of compound for 50% inhibition of enzyme” value [4] of the same molecule?
A: Its value is 0.6 µg/mL.
